# According to a melting point compilation (Tetko et al.; mined from patent text by program, amines drawn as free bases though some values may be those of a salt):
row,Structure (SMILES),melting point [°C]
1,CC1(C)OC(=C(C#N)C#N)C(C#N)=C1/C=C/c1ccc([N+](=O)[O-])cc1,281
2,COC(=O)c1sc2c(c1N=CN(C)C)c1ccccc1c(=O)n2-c1ccccc1,225 to 227
3,CCCCCCCCCCCCCCCCSCC1(CNS(=O)(=O)CCCCl)CCCO1 (stereo not given),44.5 to 45.5
4,Cc1c(=O)o[n-][n+]1CCSC1CCCCC1,82 to 83
5,O=C1c2ccccc2C(=O)c2sc(-c3ccccc3F)nc21,> 260
6,CC(C)=NOCc1nc2c(N)nc3ccccc3c2n1CC(C)(C)O,212 to 216
7,O=C1c2ccccc2CCn2c(SC(F)(F)F)ccc21,95 to 95.5
8,CCn1ncc2c3onc(-c4cccc(OC)c4)c3cnc21,130 to 131
9,CCOC(=O)C(C)Oc1ccc(N(C)c2cnc3cc(Cl)c(Cl)cc3n2)cc1 (stereo not given),79
10,Nc1cccc(-c2ccc(OCC3CNC3)c3ccccc23)n1,88 to 110
11,CC(C)NCC1CCN(c2nc3c(cc2F)c(=O)c(C(=O)O)cn3C2CC2)C1 (stereo not given),240 to 243
12,CC12CC(=NO)C(C)(C)C1C(O)C2 (stereo not given),130 to 133
13,O=c1[nH]c(=O)n2c3c1cnn3C(c1cccc(C(F)(F)F)c1)=CC2,260 to 262
14,COC(=O)c1cc(C(=O)OC)cc(P(c2ccccc2)c2ccccc2)c1,103 to 104
15,Cc1cccc2oc(C(=O)Nc3ccc(-c4ccc(S(=O)(=O)NC(C(=O)O)C(C)C)cc4)cc3)c(C)c12 (stereo not given),250 to 252
16,C#Cc1ccc2sccc2c1,55
17,NS(=O)(=O)c1cccc(NC(=O)Nc2c(F)c(F)c(F)c(F)c2F)c1,224 to 227
18,Cc1onc(NS(=O)(=O)c2ccccc2)c1Cl,139 to 141
19,O=c1ccc(C(F)(F)F)cn1Cc1ccc(F)cc1,70.1 to 72
20,O=C(O)COc1cc2cc(-c3ccccc3)sc2c(Cl)c1Cl,209 to 211

row,Structure (SMILES),melting point [°C]
1,COC(=O)c1cc2cc(OCCCl)ccc2s1,116 to 117
2,COC(=O)c1cn(-c2ccc(O)cc2C)c(C2CCC(Br)C(Br)C2)cc1=O (stereo not given),197 to 200
3,CNc1ccccc1CS(=O)c1nccn1-c1ccccn1 (stereo not given),135 to 137
4,COc1ccc(N2CCN(c3c(C)c(C)c4c(c3C)C(c3ccc(C)cc3)C(C)(C)O4)CC2)cc1OC (stereo not given),136 to 139
5,CCCCCc1c(C(C)C)nc(C(C)C)c(CO)c1-c1ccc(F)c(F)c1,106 to 107
6,Cc1ncc2c(n1)-c1ccccc1C2(Cc1ccnc(F)c1)Cc1ccnc(F)c1,114 to 115
7,O=C(c1ccc(Cl)cc1)c1cc(-c2cccnc2)c(N2CCOCC2)s1,196
8,Cn1c(=O)ccc2cc(COc3cc(F)cc(C4CCOCC4)c3)ccc21,126 to 127
9,c1coc(C2=NOCCS2)c1,147 to 150
10,N#CC(Br)c1ccc(Cl)cc1 (stereo not given),46 to 49
11,Cc1ccc(S(=O)(=O)N[C@H](CO)CCO)cc1,90 to 92
12,CC(C)(C)c1cc(C(=O)c2cccs2)cc(CN(CCO)CCO)c1O,108 to 110
13,COc1ccc(CCOCCCCCCNCC(O)c2ccc(O)c(CCO)c2)cc1 (stereo not given),84 to 85
14,CCCCc1nnc(-c2ccncc2)n1Cc1ccc(N)cc1,63.5 to 64.5
15,COc1ccc(Cc2cc(-c3ccc(Cl)cc3)sc2Cc2ccc(OC)cc2)cc1,125 to 128
16,CCOC(=O)/C=C\n1c(=O)n2nc(C(=O)OCC)cc2c2ccc(Cl)cc21,215 to 217
17,CCCc1ccc(-n2nc(Cl)cc2-c2ccc(S(C)(=O)=O)cc2)cc1[N+](=O)[O-],42 to 46
18,O=c1c(CCc2cccnc2)cc2cccnc2n1-c1cccc([N+](=O)[O-])c1,221 to 223
19,CC(C)C(CC(O)C(CC1CCCCC1)NC(=O)C(Cc1c[nH]cn1)NC(=O)C(N)Cc1ccccc1)C(O)CN(Cc1ccccn1)C(=O)OCc1ccccc1 (mixture of isomers),94
20,CCOC(=O)c1c(Cl)nc2ccccc2c1CCl,> 260
